Data: patent US12297188B2, “Crystalline forms of (S)-1-(1-acryloylpyrrolidin-3-yl)-3-((3,5-dimethoxyphenyl)ethynyl)-5-(methylamino)-1H-pyrazole-4-carboxamide” (Beijing InnoCare Pharma Tech Co., Ltd., priority 2019, dated 2025)
In brackets after ≈: the same amount, converted by molar mass. Entries after “also recorded” stand apart in the source; their conditions may differ.

What was measured:
[1] = test system: fibroblast growth factor receptor (FGFR); details: cited from earlier work
[2] = Equilibrium solubility in water; format: physicochemical; details: for solubility classification: water, room temperature, 24 hours
[3] = Stability assessment on storage (XRPD and HPLC purity); format: physicochemical; details: for XRPD change after storage / purity change after storage / stability after storage: 25° C./60% RH and 40° C./75% RH (opened) one week
Method: About 10 mg Form A of Compound I was added to each 1.5-mL glass vial and stored at (i) 80° C. (closed) for one day, or (ii) 25° C./60% RH and 40° C./75% RH (opened) for one week, and then analyzed for XRPD and HPLC purity.
About 10 mg Form C of Compound I was added to each 1.5-mL glass vial and stored under 25° C./60% RH (FIG. 13) and 40° C./75% RH (opened, FIG. 14) for one week, and then analyzed for XRPD and HPLC purity.

[4] = Hygroscopicity assessment by DVS; format: physicochemical; details: for hygroscopicity / water uptake: DVS; for XRPD before and after DVS testing: DVS 0% RH-95% RH; for water uptake: 80% RH, 25° C.
Method: (§1) X-ray powder diffraction (XRPD) studies in the present disclosure were performed using a Bruker D8 ADVANCE X-ray powder diffractometer. The parameters of the XRPD method of Compound I were as follows: • X-ray reflection: Cu, Kα • Kα1 (Å): 1.540598; Kα2 (Å): 1.544426 • Kα2/Kα1 intensity ratio: 0.50 • Voltage: 40 kV • Current: 40 mA • Scanning range: from 3.0 to 40.0 degree • Differential scanning calorimetry (DSC) data in the present disclosure were acquired by a TA DSC250. The parameters of the DSC method of Compound I were as follows: • Heating rate: 10° C./min • Purging gas: nitrogen • Thermogravimetric analysis (TGA) data in the present disclosure were acquired by a TA TGA550. The parameters of the TGA method of Compound I were as follows: • Heating rate: 10° C./min • Purging gas: nitrogen • Dynamic vapor sorption (DVS) data in the present disclosure were acquired by a SMS Intrinsic DVS. The parameters of the DVS method of Compound I were as follows: • Temperature: 25° C. • Gas and flow rate: nitrogen, 200 mL/min • dm/dt: 0.002%/min • Relative humidity (RH) range: 0% RH-95% RH
About 30 mg Form A of Compound I was assessed for hygroscopicity using a DVS analyzer, and tested by XRPD before and after DVS analysis. DVS is a gravimetric technique that measures how quickly and how much of a solvent is absorbed by a sample.
About 30 mg Form C of Compound I was assessed for hygroscopicity using a DVS analyzer, and tested by XRPD before and after DVS analysis.

[5] = Thermogravimetric analysis (thermal stability); format: physicochemical
Method: TGA is a method of thermal analysis in which the mass of a sample is measured over time as the temperature changes. TGA evaluates the thermal stability of a material.
as §1

[6] = Interconversion of Forms A-C (heating and slurry competition); format: physicochemical; details: for form obtained from slurry competition: equal amounts of Form A and B, isopropyl alcohol/water, aw=0~1, room temperature
From the text: The relationships among Forms A-C were investigated via heating and slurry competition experiments.

[7] = 25° C./60% RH for 1 week (opened)
[8] = 40° C./75% RH for 1 week (opened)

For `C=CC(=O)N1CC[C@H](n2nc(C#Cc3cc(OC)cc(OC)c3)c(C(N)=O)c2NC)C1` [Compound I, (S)-1-(1-acryloylpyrrolidin-3-yl)-3-((3,5-dimethoxyphenyl)ethynyl)-5-(methylamino)-1H-pyrazole-4-carboxamide], the FGFR inhibition [1] is listed as “potent inhibitor”.

For `C=CC(=O)N1CC[C@H](n2nc(C#Cc3cc(OC)cc(OC)c3)c(C(N)=O)c2NC)C1` [Form A, (S)-1-(1-acryloylpyrrolidin-3-yl)-3-((3,5-dimethoxyphenyl)ethynyl)-5-(methylamino)-1H-pyrazole-4-carboxamide], the solubility classification [2] was “almost insoluble or insoluble”, the “Purity (%)” value [3, 7] was 99.78% and the “Purity (%)” value [3, 8] was 99.76%. The “XRPD change after storage” value ([3]; 80° C. (closed) one day) was “little or no change”, the “purity change after storage” value ([3]; 80° C. (closed) one day) was “no purity change” and the stability after storage ([3]; 80° C. (closed) one day) was “stable”. For the same compound, the “Purity (%)” value ([3]; 80° C. for 1 day (closed)) was 99.77%, the “Purity (%)” value ([3]; Day 0) was 99.75% and the hygroscopicity [4] was “not hygroscopic”. The “XRPD before and after DVS testing” value [4] was “did not change”, the water uptake [4] was 0.14% and the thermal stability ([5]; TGA, heated to 180° C.) was “thermally stable”. For the same compound, the “weight loss (TGA)” value ([5]; heated to 180° C.) was “about 0.02%”, the “form obtained from slurry competition” value [6] was “gave Form A” and the thermodynamic stability ([6]; room temperature, versus Form B and C) was “better thermodynamic stability”.

For `C=CC(=O)N1CC[C@H](n2nc(C#Cc3cc(OC)cc(OC)c3)c(C(N)=O)c2NC)C1` [Form B, (S)-1-(1-acryloylpyrrolidin-3-yl)-3-((3,5-dimethoxyphenyl)ethynyl)-5-(methylamino)-1H-pyrazole-4-carboxamide], the solubility thermodynamic ([2]; thermodynamic from solid, conditions not stated) was 15.1 µg/mL (≈ 35.8 µM), the chemical stability [3] was “chemically stable” and the physical stability ([3]; can be converted to Form A or Form C) was “not physically stable”. The “weight loss by TGA” value ([5]; temperature not stated) was “about 2.42%” and the “form obtained from slurry competition” value [6] was “gave Form A”.

In the case of `C=CC(=O)N1CC[C@H](n2nc(C#Cc3cc(OC)cc(OC)c3)c(C(N)=O)c2NC)C1` [Form C, (S)-1-(1-acryloylpyrrolidin-3-yl)-3-((3,5-dimethoxyphenyl)ethynyl)-5-(methylamino)-1H-pyrazole-4-carboxamide], the solubility ([2]; after equilibrium in water at room temperature for 24 hours) is reported as 15.93 µg/mL (≈ 37.6 µM), the solubility classification [2] is reported as “almost insoluble or insoluble” and the “XRPD change after storage” value [3] is reported as “little or no change”. For the same compound, the “purity change after storage” value [3] was “no significant purity change”, the stability after storage [3] was “stable” and the “Purity (%)” value [3, 7] was 96.91%. The “Purity (%)” value [3, 8] was 96.99%, the “Purity (%)” value ([3]; Day 0) was 96.83% and the hygroscopicity [4] was “moderately hygroscopic; also recorded: moderately hydgroscopic”. For the same compound, the “XRPD before and after DVS testing” value [4] was “did not change”, the water uptake [4] was 5.44% and the “weight loss (TGA)” value ([5]; heated to 180° C.) was “about 2.40%”. The “form conversion on heating” value ([6]; heating to 145° C. and subsequently cooling to room temperature) was “converted to Form A”.
